According to ChEMBL document CHEMBL1154382, “Preliminary SAR analysis of novel antiproliferative N(6),5'-bis-ureidoadenosine derivatives” (2009):
Calls of active or inactive are those of the source.

Key:
Type in all cases: functional
CCRF-CEM = experiment: Antiproliferative activity against human CCRF-CEM cells at 10 uM assessed as cell growth inhibition relative to control
HL-60(TB) = experiment: Antiproliferative activity against human HL-60(TB) cells at 10 uM assessed as cell growth inhibition relative to control
K562 = experiment: Antiproliferative activity against human K562 cells at 10 uM assessed as cell growth inhibition relative to control
MOLT-4 = experiment: Antiproliferative activity against human MOLT4 cells at 10 uM assessed as cell growth inhibition relative to control
RPMI8266 = experiment: Antiproliferative activity against human […] cells at 10 uM assessed as cell growth inhibition relative to control
A549 = experiment: Antiproliferative activity against human A549 cells at 10 uM assessed as cell growth inhibition relative to control
EKVX = experiment: Antiproliferative activity against human EKVX cells at 10 uM assessed as cell growth inhibition relative to control
PC-3 = experiment: Antiproliferative activity against human PC3 cells at 10 uM assessed as cell growth inhibition relative to control
HOP-62 = experiment: Antiproliferative activity against human HOP62 cells at 10 uM assessed as cell growth inhibition relative to control
HOP-92 = experiment: Antiproliferative activity against human HOP92 cells at 10 uM assessed as cell growth inhibition relative to control
NCI-H226 = experiment: Antiproliferative activity against human NCI-H226 cells at 10 uM assessed as cell growth inhibition relative to control
NCI-H23 = experiment: Antiproliferative activity against human NCI-H23 cells at 10 uM assessed as cell growth inhibition relative to control
NCI-H322M = experiment: Antiproliferative activity against human NCI-H322M cells at 10 uM assessed as cell growth inhibition relative to control
NCI-H460 = experiment: Antiproliferative activity against human NCI-H460 cells at 10 uM assessed as cell growth inhibition relative to control
NCI-H522 = experiment: Antiproliferative activity against human NCI-H522 cells at 10 uM assessed as cell growth inhibition relative to control
COLO 205 = experiment: Antiproliferative activity against human COLO205 cells at 10 uM assessed as cell growth inhibition relative to control
HCC 2998 = experiment: Antiproliferative activity against human HCC2998 cells at 10 uM assessed as cell growth inhibition relative to control
HCT-116 = experiment: Antiproliferative activity against human HCT116 cells at 10 uM assessed as cell growth inhibition relative to control
HCT-15 = experiment: Antiproliferative activity against human HCT15 cells at 10 uM assessed as cell growth inhibition relative to control
HT-29 = experiment: Antiproliferative activity against human HT-29 cells at 10 uM assessed as cell growth inhibition relative to control
KM12 = experiment: Antiproliferative activity against human KM12 cells at 10 uM assessed as cell growth inhibition relative to control
SW-620 = experiment: Antiproliferative activity against human SW620 cells at 10 uM assessed as cell growth inhibition relative to control
LOX IMVI = experiment: Antiproliferative activity against human LOXIMVI cells at 10 uM assessed as cell growth inhibition relative to control
Malme-3M = experiment: Antiproliferative activity against human MALME-3M cells at 10 uM assessed as cell growth inhibition relative to control
M14 = experiment: Antiproliferative activity against human M14 cells at 10 uM assessed as cell growth inhibition relative to control
SK-MEL-2 = experiment: Antiproliferative activity against human SK-MEL-2 cells at 10 uM assessed as cell growth inhibition relative to control
SK-MEL-28 = experiment: Antiproliferative activity against human SK-MEL-28 cells at 10 uM assessed as cell growth inhibition relative to control
SK-MEL-5 = experiment: Antiproliferative activity against human SK-MEL-5 cells at 10 uM assessed as cell growth inhibition relative to control
UACC-257 = experiment: Antiproliferative activity against human UACC257 cells at 10 uM assessed as cell growth inhibition relative to control
UACC-62 = experiment: Antiproliferative activity against human UACC62 cells at 10 uM assessed as cell growth inhibition relative to control
SF-268 = experiment: Antiproliferative activity against human SF268 cells at 10 uM assessed as cell growth inhibition relative to control
SF-295 = experiment: Antiproliferative activity against human SF295 cells at 10 uM assessed as cell growth inhibition relative to control
SF-539 = experiment: Antiproliferative activity against human SF539 cells at 10 uM assessed as cell growth inhibition relative to control
SNB-19 = experiment: Antiproliferative activity against human SNB19 cells at 10 uM assessed as cell growth inhibition relative to control
SNB-75 = experiment: Antiproliferative activity against human SNB75 cells at 10 uM assessed as cell growth inhibition relative to control
U-251 = experiment: Antiproliferative activity against human U251 cells at 10 uM assessed as cell growth inhibition relative to control
IGROV-1 = experiment: Antiproliferative activity against human IGROV1 cells at 10 uM assessed as cell growth inhibition relative to control
OVCAR-3 = experiment: Antiproliferative activity against human OVCAR-3 cells at 10 uM assessed as cell growth inhibition relative to control
OVCAR-4 = experiment: Antiproliferative activity against human OVCAR4 cells at 10 uM assessed as cell growth inhibition relative to control
OVCAR-5 = experiment: Antiproliferative activity against human OVCAR5 cells at 10 uM assessed as cell growth inhibition relative to control
OVCAR-8 = experiment: Antiproliferative activity against human OVCAR8 cells at 10 uM assessed as cell growth inhibition relative to control
SK-OV-3 = experiment: Antiproliferative activity against human SKOV3 cells at 10 uM assessed as cell growth inhibition relative to control
786-0 = experiment: Antiproliferative activity against human 786-0 cells at 10 uM assessed as cell growth inhibition relative to control
A498 = experiment: Antiproliferative activity against human A498 cells at 10 uM assessed as cell growth inhibition relative to control
ACHN = experiment: Antiproliferative activity against human ACHN cells at 10 uM assessed as cell growth inhibition relative to control
CAKI-1 = experiment: Antiproliferative activity against human Caki1 cells at 10 uM assessed as cell growth inhibition relative to control
RXF 393 = experiment: Antiproliferative activity against human RXF393 cells at 10 uM assessed as cell growth inhibition relative to control
SN12C = experiment: Antiproliferative activity against human SN12C cells at 10 uM assessed as cell growth inhibition relative to control
TK-10 = experiment: Antiproliferative activity against human TK10 cells at 10 uM assessed as cell growth inhibition relative to control
UO-31 = experiment: Antiproliferative activity against human UO31 cells at 10 uM assessed as cell growth inhibition relative to control
BT-549 = experiment: Antiproliferative activity against human BT549 cells at 10 uM assessed as cell growth inhibition relative to control
Hs-578T = experiment: Antiproliferative activity against human Hs 578T cells at 10 uM assessed as cell growth inhibition relative to control
MCF7 = experiment: Antiproliferative activity against human MCF7 cells at 10 uM assessed as cell growth inhibition relative to control
MDA-MB-231 = experiment: Antiproliferative activity against human MDA-MB-231 cells at 10 uM assessed as cell growth inhibition relative to control
MDA-MB-468 = experiment: Antiproliferative activity against human MDA-MB-468 cells at 10 uM assessed as cell growth inhibition relative to control
T47D = experiment: Antiproliferative activity against human T47D cells at 10 uM assessed as cell growth inhibition relative to control
DU-145 = experiment: Antiproliferative activity against human DU145 cells at 10 uM assessed as cell growth inhibition relative to control

Measured: growth inhibition (GI)

[N-]=[N+]=NC[C@H]1O[C@@H](n2cnc3c(NC(=O)Nc4ccccc4)ncnc32)[C@@H]2OC(=O)C[C@@H]21
inactive: all assays above
